Laboratory results published in ChEMBL document CHEMBL1201862, “PubChem BioAssay data set” (2004).
The source made the active and inactive calls.

What was measured:
[1] = NIH-3T3 fibroblast cytotoxicity, dose response, cytotoxicity control, cell-based, fluorescence, Alamar Blue, secondary assay (AID 2327); assay type: functional;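 further: NIH-3T3 mouse fibroblasts cultured with fluconazole at 8 µg/mL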
BJ [2] = experiment: BJ-TERT fibroblast viability loss – cell-based, RAS-independent, luminescence, dose response (AID 1933); assay type: functional; conditions: Homo sapiens
cells [3] = assay type: functional, cell-based
BJ [4] = experiment: cells; assay type: functional, cell-based; conditions: Homo sapiens
[5] = fluconazole-exposed Candida albicans growth modulators – fluorescence, retest, confirmation (AID 2467); assay type: functional, cell-based
cells [6] = assay type: functional, cell-based; remark: listed apart in the source
BJ [7] = experiment: BJ-TERT-LT-ST fibroblast viability loss – cell-based, RAS-independent, luminescence, dose response (AID 1935); assay type: functional; conditions: Homo sapiens;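 further: BJ fibroblasts immortalized with TERT plus LT and ST oncogenes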
[8] = DRD fibroblast viability loss – cell-based, non-viral oncogenic, luminescence, dose response (AID 1934); assay type: functional; conditions: Homo sapiens
[9] = target: Intestinal-type alkaline phosphatase (Mus musculus, UniProt P24822); experiment: PubChem AID 488874; assay type: functional
[10] = target: T1, Intestinal-type alkaline phosphatase (Homo sapiens, UniProt P09923); experiment: human intestinal alkaline phosphatase activators, dose response, biochemical, luminescence, uHTS hits (AID 463120); assay type: functional
[11] = HEK-293T viability loss after treatment – luminescence, T-cell screen hits, cytotoxicity control for TCR NF-kB inhibitor project, dose response (AID 489026); assay type: functional, cell-based;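 further: cells exposed to compound about 14 hours before the viability readout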
[12] = target: T1, Intestinal-type alkaline phosphatase; experiment: activation of human intestinal alkaline phosphatase – biochemical, luminescent, uHTS hits, set 2, dose response (AID 488817); assay type: functional;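 further: potency of activators that raise enzyme activity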
[13] = target: T2, Alkaline phosphatase, tissue-nonspecific isozyme (Homo sapiens, UniProt P05186); experiment: activation of tissue-nonspecific alkaline phosphatase – biochemical, TNAP isozyme, human IAP uHTS hits, selectivity assay for human IAP activator project, dose response (AID 488886); assay type: functional;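 further: potency of compounds raising TNAP activity as a selectivity check on IAP activators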
T2 sequence (P05186 whole entry): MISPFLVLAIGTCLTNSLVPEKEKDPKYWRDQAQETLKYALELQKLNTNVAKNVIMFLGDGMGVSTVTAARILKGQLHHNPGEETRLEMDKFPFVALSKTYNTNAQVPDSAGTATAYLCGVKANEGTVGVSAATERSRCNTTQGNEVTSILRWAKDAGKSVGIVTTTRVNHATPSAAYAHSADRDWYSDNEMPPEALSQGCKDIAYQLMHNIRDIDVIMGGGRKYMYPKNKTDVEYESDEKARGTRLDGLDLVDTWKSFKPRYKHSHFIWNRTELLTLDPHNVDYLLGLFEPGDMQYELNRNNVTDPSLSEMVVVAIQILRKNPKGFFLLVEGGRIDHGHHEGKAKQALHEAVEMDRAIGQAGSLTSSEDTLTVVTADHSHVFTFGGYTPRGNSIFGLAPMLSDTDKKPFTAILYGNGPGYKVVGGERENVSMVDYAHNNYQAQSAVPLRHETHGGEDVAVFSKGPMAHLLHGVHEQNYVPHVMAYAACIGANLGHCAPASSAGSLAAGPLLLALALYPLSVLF

BJ [14] = experiment: growth inhibition of engineered Ras-driven BJ cells – cell-based, alamar blue fluorescence, cherrypicked samples, dose response (AID 2631); assay type: functional; conditions: Homo sapiens;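 further: confirmatory dose-response assay in RAS-dependent BJ fibroblasts engineered with TERT, LT and ST, with cytotoxicity read by fluorescence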
INS1 = experiment: INS-1E survival protection against cytokine death – cell-based, luminescence, retest, dose response (AID 449756); assay type: functional; conditions: Rattus norvegicus;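 further: cell death triggered by IL-1 beta plus TNF-alpha plus IFN-gamma mixture; protective hits raise ATP signal compared with cytokine alone wells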
Cytochrome P450 2D6 [15] = target: T3, Cytochrome P450 2D6 (Homo sapiens, UniProt P10635);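 further: CYP2D6 member of a cytochrome P450 panel assay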
Cytochrome P450 1A2 = target: T4, Cytochrome P450 1A2 (Homo sapiens, UniProt P05177);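 further: PubChem cytochrome P450 panel assay, CYP1A2 panel member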
T4 sequence (P05177 whole entry): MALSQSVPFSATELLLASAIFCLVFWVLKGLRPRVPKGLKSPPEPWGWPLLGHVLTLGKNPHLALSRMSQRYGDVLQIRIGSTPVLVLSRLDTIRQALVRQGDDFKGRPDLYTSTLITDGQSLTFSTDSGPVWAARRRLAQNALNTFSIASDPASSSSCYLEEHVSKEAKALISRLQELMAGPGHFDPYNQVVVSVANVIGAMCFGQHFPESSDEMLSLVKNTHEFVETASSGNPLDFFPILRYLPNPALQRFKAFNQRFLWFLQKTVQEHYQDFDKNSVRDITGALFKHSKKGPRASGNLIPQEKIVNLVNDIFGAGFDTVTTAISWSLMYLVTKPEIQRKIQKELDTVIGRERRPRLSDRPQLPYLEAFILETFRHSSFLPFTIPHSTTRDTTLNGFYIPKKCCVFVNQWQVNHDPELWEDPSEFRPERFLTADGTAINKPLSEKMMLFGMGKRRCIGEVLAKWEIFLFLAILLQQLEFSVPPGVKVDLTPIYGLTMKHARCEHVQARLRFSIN

[16] = target: Lysine-specific demethylase 4C (Homo sapiens, UniProt Q9H3R0); experiment: inhibition of JMJD2C H3K9me3 demethylation – biochemical, DELFIA europium, cherry-picked samples, dose response (AID 488835); assay type: functional
[17] = Luminescence Cell-Based Dose Retest to Confirm Inhibitors of Cancer Stem Cells. [Related pubchem assays (depositor defined):AID2717, AID2721]; assay type: functional; conditions: Homo sapiens
[18] = viability loss of HMLE_sh_eGFP cells – cell-based, luminescence, counter-screen for HMLE_sh_ECad selective toxicity project, dose response (AID 463074); assay type: functional, Homo sapiens;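 further: HMLE human mammary epithelial cells expressing control shRNA against eGFP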
Cytochrome P450 2D6 [19] = target: T3, Cytochrome P450 2D6; remark: listed apart in the source
HEK293 [20] = experiment: cells; conditions: Homo sapiens
HEK293 [21] = experiment: cells; conditions: Homo sapiens; remark: listed apart in the source
Tumor necrosis factor = Tumor necrosis factor (Homo sapiens, UniProt P01375); experiment: analog potency on TNFa NF-kB signaling – cell-based, revised, SAR follow-up (AID 2337); assay type: functional
[22] = target: Nucleotide-binding oligomerization domain-containing protein 1 (Homo sapiens, UniProt Q9Y239); experiment: blockers of NOD1 pathway activity – revised, SAR follow-up (AID 2333); assay type: functional
HEK293 [23] = experiment: cells; conditions: Homo sapiens; remark: listed apart in the source

T3 sequence (P10635 whole entry): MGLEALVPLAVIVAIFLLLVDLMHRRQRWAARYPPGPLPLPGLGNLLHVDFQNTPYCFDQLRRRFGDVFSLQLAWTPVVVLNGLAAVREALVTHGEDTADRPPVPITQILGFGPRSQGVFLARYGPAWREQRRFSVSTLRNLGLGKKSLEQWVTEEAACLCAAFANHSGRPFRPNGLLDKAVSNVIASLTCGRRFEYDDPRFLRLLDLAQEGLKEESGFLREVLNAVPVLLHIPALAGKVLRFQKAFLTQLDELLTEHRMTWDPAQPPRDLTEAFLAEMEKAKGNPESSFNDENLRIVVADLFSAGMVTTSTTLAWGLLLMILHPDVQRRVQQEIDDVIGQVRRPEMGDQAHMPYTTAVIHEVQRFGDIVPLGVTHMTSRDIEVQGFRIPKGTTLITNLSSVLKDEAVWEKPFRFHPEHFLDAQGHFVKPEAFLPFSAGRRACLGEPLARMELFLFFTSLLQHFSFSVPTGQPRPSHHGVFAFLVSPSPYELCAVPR
T1 sequence (P09923 whole entry): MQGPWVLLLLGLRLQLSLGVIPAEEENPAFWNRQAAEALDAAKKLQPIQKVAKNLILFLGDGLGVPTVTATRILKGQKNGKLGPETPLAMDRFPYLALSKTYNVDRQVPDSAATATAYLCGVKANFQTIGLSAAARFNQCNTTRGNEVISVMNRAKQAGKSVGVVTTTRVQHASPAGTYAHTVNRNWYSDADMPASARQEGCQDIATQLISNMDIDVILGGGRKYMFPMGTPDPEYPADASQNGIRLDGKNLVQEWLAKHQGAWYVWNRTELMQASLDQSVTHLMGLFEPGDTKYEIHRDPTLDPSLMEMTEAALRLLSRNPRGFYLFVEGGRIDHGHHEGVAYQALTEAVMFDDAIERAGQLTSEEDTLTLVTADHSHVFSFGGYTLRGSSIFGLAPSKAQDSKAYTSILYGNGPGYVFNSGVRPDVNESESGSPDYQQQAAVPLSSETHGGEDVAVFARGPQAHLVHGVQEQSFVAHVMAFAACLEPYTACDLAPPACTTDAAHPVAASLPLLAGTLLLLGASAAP
Tumor necrosis factor, sequence (P01375 whole entry, the tested form may be a part): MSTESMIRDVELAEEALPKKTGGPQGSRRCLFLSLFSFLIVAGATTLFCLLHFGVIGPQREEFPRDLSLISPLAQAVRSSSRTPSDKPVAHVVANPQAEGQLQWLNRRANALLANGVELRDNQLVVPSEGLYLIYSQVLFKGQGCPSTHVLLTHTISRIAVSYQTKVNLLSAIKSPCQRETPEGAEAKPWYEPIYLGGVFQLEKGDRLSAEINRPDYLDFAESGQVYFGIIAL
Lysine-specific demethylase 4C, sequence (Q9H3R0 whole entry): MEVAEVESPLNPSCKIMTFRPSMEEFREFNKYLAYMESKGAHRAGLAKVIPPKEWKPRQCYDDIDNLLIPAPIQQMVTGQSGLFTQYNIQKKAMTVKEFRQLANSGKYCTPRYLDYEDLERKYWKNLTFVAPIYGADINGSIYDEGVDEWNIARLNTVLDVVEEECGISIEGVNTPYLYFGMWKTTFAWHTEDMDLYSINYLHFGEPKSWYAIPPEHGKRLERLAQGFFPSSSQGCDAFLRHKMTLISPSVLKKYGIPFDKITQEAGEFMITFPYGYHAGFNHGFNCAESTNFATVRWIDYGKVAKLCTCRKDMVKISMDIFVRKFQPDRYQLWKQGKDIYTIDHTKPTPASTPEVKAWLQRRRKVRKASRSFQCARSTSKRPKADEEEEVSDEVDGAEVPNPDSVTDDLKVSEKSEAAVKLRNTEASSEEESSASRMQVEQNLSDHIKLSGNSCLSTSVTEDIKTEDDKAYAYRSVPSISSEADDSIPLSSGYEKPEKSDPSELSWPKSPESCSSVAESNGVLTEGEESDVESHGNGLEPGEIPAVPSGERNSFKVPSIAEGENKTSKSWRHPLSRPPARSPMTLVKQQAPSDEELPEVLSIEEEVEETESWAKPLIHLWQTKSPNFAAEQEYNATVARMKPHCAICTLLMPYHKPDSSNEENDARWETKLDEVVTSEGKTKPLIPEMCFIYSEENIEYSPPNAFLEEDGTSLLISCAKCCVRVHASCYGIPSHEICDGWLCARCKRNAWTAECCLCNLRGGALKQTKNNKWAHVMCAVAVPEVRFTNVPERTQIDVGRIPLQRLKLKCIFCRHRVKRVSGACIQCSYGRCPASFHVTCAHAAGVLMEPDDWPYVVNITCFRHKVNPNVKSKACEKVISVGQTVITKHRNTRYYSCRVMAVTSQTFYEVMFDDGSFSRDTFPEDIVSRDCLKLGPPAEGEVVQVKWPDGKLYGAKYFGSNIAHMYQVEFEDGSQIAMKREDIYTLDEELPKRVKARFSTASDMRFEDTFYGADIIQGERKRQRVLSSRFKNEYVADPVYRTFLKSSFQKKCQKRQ
Intestinal-type alkaline phosphatase (Mus musculus, UniProt P24822), sequence (P24822 whole entry): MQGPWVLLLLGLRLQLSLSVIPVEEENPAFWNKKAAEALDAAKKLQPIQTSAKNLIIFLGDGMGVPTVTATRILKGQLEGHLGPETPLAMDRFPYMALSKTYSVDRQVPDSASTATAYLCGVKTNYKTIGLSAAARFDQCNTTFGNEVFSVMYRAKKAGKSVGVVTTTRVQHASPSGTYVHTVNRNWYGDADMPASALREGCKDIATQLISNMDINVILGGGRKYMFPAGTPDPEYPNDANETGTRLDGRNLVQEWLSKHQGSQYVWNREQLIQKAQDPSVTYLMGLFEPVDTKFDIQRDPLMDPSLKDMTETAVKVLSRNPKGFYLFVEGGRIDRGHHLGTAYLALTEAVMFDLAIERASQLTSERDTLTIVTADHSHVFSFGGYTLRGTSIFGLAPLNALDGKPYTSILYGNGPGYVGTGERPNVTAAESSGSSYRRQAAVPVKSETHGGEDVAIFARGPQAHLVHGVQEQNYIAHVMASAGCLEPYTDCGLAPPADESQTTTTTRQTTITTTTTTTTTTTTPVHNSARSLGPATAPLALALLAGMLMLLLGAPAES
Nucleotide-binding oligomerization domain-containing protein 1, sequence (Q9Y239 whole entry, the tested form may be a part): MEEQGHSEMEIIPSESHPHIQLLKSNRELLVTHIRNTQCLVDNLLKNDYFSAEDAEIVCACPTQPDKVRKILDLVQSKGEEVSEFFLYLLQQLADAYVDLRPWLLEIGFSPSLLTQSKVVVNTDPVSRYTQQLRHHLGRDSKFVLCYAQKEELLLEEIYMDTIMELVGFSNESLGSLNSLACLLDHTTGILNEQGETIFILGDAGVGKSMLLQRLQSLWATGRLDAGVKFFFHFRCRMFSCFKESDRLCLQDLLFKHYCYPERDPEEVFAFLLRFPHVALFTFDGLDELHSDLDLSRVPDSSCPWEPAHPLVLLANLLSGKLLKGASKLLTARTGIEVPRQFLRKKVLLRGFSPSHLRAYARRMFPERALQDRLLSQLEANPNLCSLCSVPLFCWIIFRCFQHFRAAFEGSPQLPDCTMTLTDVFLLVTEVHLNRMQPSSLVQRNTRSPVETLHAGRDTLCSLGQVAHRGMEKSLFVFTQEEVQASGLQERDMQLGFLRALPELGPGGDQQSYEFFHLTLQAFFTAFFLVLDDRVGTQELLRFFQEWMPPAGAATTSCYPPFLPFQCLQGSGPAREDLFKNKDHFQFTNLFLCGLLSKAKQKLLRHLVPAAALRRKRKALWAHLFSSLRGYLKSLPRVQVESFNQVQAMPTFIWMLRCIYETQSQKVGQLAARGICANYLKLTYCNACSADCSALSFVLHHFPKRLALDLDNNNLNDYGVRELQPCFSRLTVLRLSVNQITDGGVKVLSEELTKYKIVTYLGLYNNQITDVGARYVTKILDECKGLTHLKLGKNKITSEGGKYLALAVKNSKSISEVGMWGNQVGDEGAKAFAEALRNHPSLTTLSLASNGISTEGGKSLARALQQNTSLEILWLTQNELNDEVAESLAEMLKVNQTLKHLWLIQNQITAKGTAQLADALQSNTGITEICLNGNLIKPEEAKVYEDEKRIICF

CCN(CC)c1ccc(/C=N/NC(=O)c2nnn(-c3nonc3N)c2C(C)C)c(O)c1
EC50 [1]: 4 µM (active)
EC50 (BJ [2]): 7.4 µM (inconclusive)
EC50 (cells [3]): 5.38 µM (active)
EC50 (BJ [4]): 2.83 µM (active)
EC50 [5]: 0.401 µM (active)
EC50 (cells [6]): > 350 µM (not active)
EC50 (BJ [7]): 6.05 µM (inconclusive)
EC50 [8]: 8.09 µM (inconclusive)
IC50 [9]: 78 µM (active)
EC50 [10]: 10.5 µM (active)
IC50 [11]: > 80 µM (inactive)
EC50 [12]: 20.6 µM (active)
EC50 [13]: 19 µM (active)
EC50 (BJ [14]): 0.199 µM (active)
AC50 (INS1): < 0.195 µM (active)

COc1cccc2c1C(=O)c1c(O)c3c(c(O)c1C2=O)C[C@](O)(C(C)=O)C[C@H]3O[C@@H]1C[C@H](N)[C@H](O)[C@H](C)O1
AC50 (Cytochrome P450 2D6 [15]): inactive
AC50 (Cytochrome P450 1A2): inactive

CCN(C[C@H]1N[C@@](CC)(C(=O)OC)[C@H]2C(=O)N(Cc3ccccc3)C(=O)[C@@H]12)S(=O)(=O)c1ccc(C(C)(C)C)cc1
AC50 [16]: 42.6 µM (active)

COc1cc(NC(=O)c2ccnc(N)c2)cc(C(=O)Nc2cccc(C(F)(F)F)c2)c1
AC50 [17]: 17.4 µM (active)
AC50 [18]: 39.5 µM (active)

C=CCn1c(SC(C)C(=O)NCc2ccc3c(c2)OCO3)nc2scc(-c3ccccc3)c2c1=O (stereo unspecified)
AC50 (Cytochrome P450 2D6 [19]): 3.16 µM (inconclusive)
EC50 (HEK293 [20]): > 59.7 µM (inactive)
EC50 (HEK293 [21]): > 59.7 µM (inactive)

CSc1ccc(NC(=O)c2ccc(CN3CCc4ccccc4C3)cc2)cc1
IC50 (Tumor necrosis factor): 0.372 µM (active)
IC50 [22]: 0.243 µM (active)
IC50 (HEK293 [23]): 7.86 µM (active)
